One test has as its system BMP-2. Put plainly: BMP-2 gene reporter assay (high throughput screen). It is filed as cell-based. Here is the method: BMP-2 gene reporter assay (high throughput screen) (i) BMP-2 high throughput gene reporter assay of non-hydrolyzed MeOH/H2O extracts (1a) and corresponding glycosidase hydrolyzed extract in ethyl acetate (1b). Extracts were tested twice at concentrations of 1 to 100 μg/ml, diluted in culture medium from plant extract stocks prepared as 50 mg/ml in DMSO. (ii) Extracts positive in the BMP-2 screen were prepared de novo and screened again with dose-response to confirm as “hits”. (iii) BMP-2 testing of subfractionation of positives/hits and candidate pure compounds
On the technique in general: A reporter such as luciferase makes a cellular process visible.

In a further test the test system is osteoblast cells. As to the kind of experiment: Alkaline phosphatase assay in osteoblast cells (osteoblast differentiation). The class given is cell-based.
The next test deals with OPG/RANKL. As to the kind of experiment: Osteoblast/osteoclast co-culture system, cytokine regulation. The class given is cell-based. Here is the method: For example, at least 3 phenolics (e.g. eupafolin, carnosol, scutellarein) may contribute to the anabolic potential of the rosemary extract. Additional phenolics of rosemary include genkwanin, kaempferol, acacetin. The rosemary plant extracts and pure compounds were tested in an osteoblast/osteoclast co-culture system.

For test [1], the system named is neonatal murine calvarial bones. Put plainly: Calvaria organ culture in vitro, bone formation. The class given is cell-based. Here is the method: (v) Final injection in vivo of “hit” extract into mouse calvaria bones and monitoring of bone area and thickness. Extracts were assessed in a 4-day in vitro neonatal murine calvarial assay. Bones were incubated with the extracts for the entire 4 days.

In the next test the test system is Osteopontin (OPN) mRNA. Put plainly: OPN mRNA induction by real-time PCR in hPOBtert osteoblasts. To be noted: hPOBtert cells, 48 h; FIG. 10. It is filed as cell-based, human. As for the experimental part: Cell culture—HPOBTert osteoblasts were seeded on collagen-coated plates and grown in MEM Eagle α Modification medium supplemented with 10% fetal bovine serum, 1% L-glutamine and penicillin/streptomycin, 1 mM β-glycerolphosphate and 50 μg/ml ascorbic acid in a humidified atmosphere of 5% CO2, and 95% air at 37° C. When carnosol and inhibitors were added, an equivalent amount of Me2SO was used as a vehicle control. Analysis of mRNA levels by Real-Time PCR—Total cellular RNA was extracted using the NucleoSpin RNA II kit (Macherey-Nagel, Switzerland). Equal amounts (1 μg) of RNA from the different treatments were reverse-transcribed using the First Strand cDNA Synthesis kit for RT-PCR (Roche, Mannheim, Germany). For each sample, 2 μl 10× reaction buffer, 4 μl 25 mM MgCl2, 2 μl nucleotide mix, 2 μl random primers, 1 μl RNAse inhibitor and 0.4 μl AMV reverse transcriptase from the kit were added to the sample. The reverse transcriptase was performed at the following thermal cycling conditions (25° C. for 10 min, 42 C for 60 min, and 75° C. for 5 min) using the PTC-100TM Concept, Switzerland). Real-time Quantitative PCR—Quantitative PCR was performed in 25 μl in triplicates. This consisted of 12.5 μl of Taqman 2× Universal PCR Master Mix, 1.25 μl Assay-on-Demand primers and probes (Applied Biosystems, USA) and 6.25 μl RNAse free water. […]
In general terms: Quantitative PCR measures a nucleic acid by following its amplification.

The subject of the next test is NQO1. Put plainly: NQO1 induction, immunoblot of hPOBtert cell extracts. The settings on record: hPOBtert cells; FIG. 11. It is filed as cell-based, human. Here is the method: Preparation of cytoplasmic extracts—hPOBtert cells were washed two times with cold phosphate-buffered saline and harvested with lysis buffer (1% Triton X-100, 20 mM Tris/HCL pH 8, 137 mM Nacl, 10% Glycerol, 2 mM EDTA pH 8, and freshly added proteinase inhibitors: 1 mM phenylmethylsulfonylfluoride, 0.15 U/ml Aprotinin, 10 μg/ml Leupeptide and 10 μg/ml Pepstatin). The samples were centrifuged at 13000 rpm, 4° C. for 5 min and the supernatant transferred to a fresh tube. The protein concentration was determined using the BioRad protein assay. Approximately 50 μg of each sample were mixed with a suitable volume of sample buffer, denatured for 5 min at 95° C. together with 5 μl protein standard, chilled on ice, and loaded on a 10% ready gel, and submitted to immunoblot analysis using anti-NQO1 antibodies.
Immunoblotting—50 μg of protein cell lysate were resolved by SDS-PAGE. After electrophoresis, proteins were transferred to a PVDF membrane (Invitrogen) according to the manufacturer's protocol. Membranes probed for OPN and NQO1 were blocked and probed in 5% milk in Tris-buffered saline/Tween (20 mM Tris base, pH 7.6, 137 mM, 0.1% Tween 20). The blots were visualised by chemiluminescence development, Western blotting detection system (Amersham Biosciences).
Antibodies—The NQO1 (sc-16464)-specific antibodies were purchased from Santa Cruz Biotechnologies Inc (Santa Cruz, Calif.). […]
For orientation: Immunoblotting shows a protein as a band on a membrane.

Test [2] has as its system bovine articular cartilage explants. Put plainly: Cytokine-induced collagen degradation in articular cartilage explants. The class given is cell-based. To be noted: 1 or 5 μM; FIG. 9C. An excerpt: (vii) Effects on cytokine-induced type II collagen degradation, MMP-mediated aggrecan degradation and aggrecanase-mediated degradation in bovine articular cartilage explants.
We investigated here whether 2 different rosemary extracts and carnosol, one of the main components of this extract, could inhibit the degradation of collagen and aggrecan in cultured explants of articular cartilage. Explants from healthy bovine articular cartilage were put in culture. However, such explants naturally display a very low catabolic activity which is not ideal to test the anti-catabolic activity of potential bioactives. To improve the sensitivity of the assay, the explants are cultured in presence of 2 pro-inflammatory cytokines, TNF-α and oncostatin known to act together as potent inducers of MMP and aggrecanase activities.

With `COc1ccc(-c2cc(=O)c3c(O)cc(O)cc3o2)cc1` [Acacetin], the BMP-2 induction with BMP-2 (5-10 μM) is 3-5X. For the same compound, in the test with osteoblast cells (5-10 μM), the ALP activity induction was found to be 2X.
For the compound `COc1c(O)cc2oc(-c3ccc(O)c(O)c3)cc(=O)c2c1O` [Eupafolin], the BMP-2 induction with BMP-2 (2.5-10 μM) was 3-8X. Besides, the ALP activity induction in the test on osteoblast cells (5 μM) amounted to 2 X; in the test with osteoblast cells (10 μM), 4 X. Further, in the test on OPG/RANKL, the “regulation of the key cytokines controlling bone remodelling, OPG/RANKL” value was “activity for regulation”.
As to `O=c1cc(-c2ccc(O)cc2)oc2cc(O)c(O)c(O)c12` [IX, Scutellarein], in the test with BMP-2 (5, 10 μM), the BMP-2 induction was 3-4X. Further, the ALP activity induction in the test with osteoblast cells (10 μM) is 2X.
Take `O=c1c(O)c(-c2ccc(O)cc2)oc2cc(O)cc(O)c12` [Kaempferol]: the “Bone formation in organ culture” value in test [1] (10 μM) is “Slight at 10 μM”. Besides, in the test with BMP-2 (1-10 μM), the BMP-2 induction is listed as 2.5X. Further, the ALP activity induction with osteoblast cells (2.5-10 μM) is 2-4X.
`COc1cc(O)c2c(=O)cc(-c3ccc(O)cc3)oc2c1` [V, Genkwanin]: the BMP-2 induction in the test on BMP-2 (5 μM) was found to be 4X. The ALP activity induction in the test on osteoblast cells (10 μM) was 1.5X.
Regarding `CC(C)c1cc2c(c(O)c1O)[C@@]13CCCC(C)(C)[C@@H]1C[C@@H]2OC3=O` [VII, Carnosol], the “Bone formation in organ culture” value in test [1] (2.5 μM) is “Slight BF for 2.5 μM”; in test [1] (5, 10 μM), “Good BF for 5, 10 μM”. Moreover, the BMP-2 induction in the test on BMP-2 (2.5-10 μM) is listed as 4.5-7X. For the same compound, in the test on BMP-2 (compounds isolated from rosemary extract 2188), the “BMP- Activity” value is reported as “YES”. Besides, the “OPN expression (OPN mRNA levels)” value in the test with Osteopontin (OPN) mRNA is on record as “induce OPN expression dose-dependently”. Also, the ALP activity induction with osteoblast cells (2.5-10 μM) turned out to be 2X. Besides, the “expression of the phase II enzyme NQO1” value in the test on NQO1 was “induces the expression”. Further, the “regulation of the key cytokines controlling bone remodelling, OPG/RANKL” value in the test with OPG/RANKL is on record as “activity for regulation”. For the same compound, the “cytokine induced collagen degradation” value in test [2] is given as “inhibited”.

These data come from patent publication US20090304823A1, “NUTRITIONAL COMPOSITIONS FOR PROMOTION OF BONE GROWTH AND MAINTENANCE OF BONE HEALTH AND METHODS REGARDING SAME” (NESTEC S.A., priority 2006, published 2009).
